How the values were obtained:
[1] = Water-soluble herbicide formulation testing (standard dilution test, emulsion stability); format: physicochemical; parameters: key to Emulsion stability, mL separation, 24 h: Tr = trace; conditions: 342 ppm water;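 further: diluted in a 50 mL Nessler cylinder held at 30 °C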
Procedure: Surfactant candidates for water soluble herbicide applications are examined as a replacement for the anionic, nonionic, or anionic/nonionic blend portion and compared to a known industry adjuvant standard for use in paraquat, a water soluble herbicide concentrate formulation. A standard dilution test is conducted whereby the concentrates are diluted in water to determine if solubility is complete.
The cylinder is stoppered and inverted ten times. Solubility is recorded as complete or incomplete. Cylinders are allowed to stand and the amount (in mL) and type of separation are recorded after 30 min., 1 h, 2 h, and 24 h. Results of the solubility testing appear in Table 3 below.
An eight to ten mole alkyl phenol ethoxylate surfactant (0.7 g) is added and vigorously mixed for 30 s. Test sample (0.7 g) is added and mixing resumes for 30 s.
Test sample (0.7 g) is added and vigorously mixed for 30 s. Sodium linear alkylbenzene sulfonate (“NaLAS,” 0.7 g) is added and mixing resumes for 30 s.

[2] = Anionic emulsifier: emulsion stability testing of EW concentrate (modified ASTM E1116-98)
Procedure: Turbidity changes are noted and recorded.
A Mohr pipette is used to feed EW concentrate to each cylinder. Cylinders are stoppered and inverted ten times, then allowed to stand for 0.5, 1, and 24 h while recording stability at each time as type and % separation.
Spontaneity is recorded according to the following criteria: (1) poor: very thin emulsion cloud with major separation of oil droplets; (2) fair: thin emulsion cloud with minor separation of oil droplets; (3) good: thin emulsion cloud reaches the bottom of the cylinder without separation of any type; (4) excellent: thick emulsion cloud reaches the bottom of the cylinder without separation of any type.

[3] = Adjuvant (anionic/nonionic) test sample

| Substance | Emulsion stability, mL separation, 1 h [1, 3] [mL] | Emulsion stability, mL separation, 24 h [1, 3] [mL] | Emulsion stability, mL separation, 1 h ([1]; Anionic test sample) [mL] | Emulsion stability, mL separation, 24 h ([1]; Anionic test sample) [mL] | Emulsion stability, mL separation, 1 h ([1]; Nonionic test sample) [mL] | Emulsion stability, mL separation, 24 h ([1]; Nonionic test sample) | % Separation, 1 h ([2]; 34 ppm water) [%] | % Separation, 24 h ([2]; 34 ppm water) [%] | % Separation, 1 h ([2]; 1000 ppm water) [%] | % Separation, 24 h ([2]; 1000 ppm water) [%] |
| --- | --- | --- | --- | --- | --- | --- | --- | --- | --- | --- |
| 15 Mole Ethoxylated C10 Alcohol, Sodium Sulfate [A10-18] | 0 | 0 | 0 | 0 | 0 | 0 mL | 2.5 | 2.8 | 4 | 4 |
| 3 Mole Ethoxylated C12 Alcohol, Ammonium Sulfate [A12-8] | – | – | – | – | – | – | 3 | 4 | 3.7 | 3.9 |
| 15 Mole Ethoxylated C12 Alcohol, Ammonium Sulfate [A12-17] | – | – | – | – | – | – | 4 | 3.8 | 3.5 | 4.2 |
| 15 Mole Ethoxylated C10 Alcohol, Ammonium Sulfate [A10-17] | – | – | – | – | – | – | 1.5 | 2.2 | 1.5 | 2 |
| 7 Mole Ethoxylated C12 Alcohol, Sodium Sulfate [A12-15] | 0 | 0 | 0 | 0 | 0 | 0 mL | 3.5 | 3.9 | 3.5 | 4 |
| 7 Mole Ethoxylated C12 Alcohol, Ammonium Sulfate [A12-14] | – | – | – | – | – | – | 3.9 | 4.1 | 2.8 | 3.5 |
| 5 Mole Ethoxylated C10 Alcohol, Sodium Sulfate [A10-12] | 0 | 0 | 0 | 0 | 0 | 0 mL | 3.6 | 4 | 3.4 | 4.3 |
| 5 Mole Ethoxylated C12 Alcohol, Ammonium Sulfate [A12-11] | – | – | – | – | – | – | 3.6 | 3.8 | 2.1 | 3 |
| 3 Mole Ethoxylated C10 Alcohol, Sodium Sulfate [A10-9] | 0 | 0 | 0 | 0 | 0 | 0 mL | 4 | 3.6 | 3.5 | 3.9 |
| 5 Mole Ethoxylated C10 Alcohol, Ammonium Sulfate [A10-11] | – | – | – | – | – | – | 3.9 | 5 | 2.5 | 3.1 |
| 1 Mole Ethoxylated C10 Alcohol, Sodium Sulfate [A10-6] | 0 | 0 | 0 | 0 | 0 | Tr | 4 | 4.9 | 3 | 3.2 |
| 7 Mole Ethoxylated C10 Alcohol, Sodium Sulfate [A10-15] | 0 | 0 | 0 | 0 | 0 | 0 mL | 3.5 | 3.9 | 3 | 4.1 |
| 1 Mole Ethoxylated C10 Alcohol, Ammonium Sulfate [A10-5] | – | – | – | – | – | – | 3.8 | 4.3 | 2.8 | 3 |
| 3 Mole Ethoxylated C10 Alcohol, Ammonium Sulfate [A10-8] | – | – | – | – | – | – | 3.5 | 3.9 | 3.5 | 3.5 |
| 7 Mole Ethoxylated C10 Alcohol, Ammonium Sulfate [A10-14] | – | – | – | – | – | – | 3.5 | 4 | 3.5 | 4.1 |
| 15 Mole Ethoxylated C12 Alcohol, Sodium Sulfate [A12-18] | 0 | 0 | 0 | 0 | 0 | 0 mL | 3 | 4.3 | 2.5 | 3.9 |
| 1 Mole Ethoxylated C12 Alcohol, Ammonium Sulfate [A12-5] | – | – | – | – | – | – | 4 | 4.1 | 3 | 3.5 |

From patent publication US11760889B2, “Unsaturated fatty alcohol derivatives from natural oil metathesis” (priority 2012, dated 2023)
